Earlier results, collected in patent publication US20080131525A1, “Therapeutic Nutrient Compositions Or Combinations And Methods Of Their Use” (priority 2004, published 2008).
Residues, ends and D or L forms follow the SMILES beside them.

Details: human, in vivo

dipeptide in plasma after the end of infusion: no longer detectable in plasma
dipeptide in urine: no ala-gln was detected in urine
half-life: 2.4 to 3.8 min
plasma clearance rate: 1.92 L/min
dipeptide in plasma over the infusion period (24 mg/kg): only trace quantities
hydrolysis after intravenous infusion (iv): rapidly hydrolysed
SMILES: C[C@H](N)C(=O)N[C@@H](CCC(N)=O)C(=O)O [ala-gln, N(2)-L-alanyl-L-glutamine] (H-Ala-Gln-OH)
calculated distribution volume: equivalent to that of the extracellular compartment
tolerability (iv): well tolerated
